Test results published in ChEMBL document CHEMBL3616434, “Identification of Phenoxyalkylbenzimidazoles with Antitubercular Activity” (J Med Chem, 2015).
In brackets after ≈: the same amount, converted by molar mass. Activity calls are given as the source filed them. No cut-off for these calls is given here.

How the values were obtained:
[1] = test system: Mycobacterium tuberculosis; assay: Antitubercular activity against Mycobacterium tuberculosis H37Rv ATCC 25618 under aerobic condition after 5 days; type: functional; conditions: H37Rv ATCC 25618, 120 h
[2] = Cytotoxicity against African green monkey Vero cells after 2 days by luminescent assay; type: cell-based; conditions: chlorocebus sabaeus, read-out: TC50
[3] = Selectivity index, ratio of TC50 for African green monkey Vero cells to MIC for Mycobacterium tuberculosis H37Rv ATCC 25618
[4] = test system: Mycobacterium tuberculosis; assay: Bactericidal activity against replicating Mycobacterium tuberculosis at 1 to 10 times MIC after 21 days; type: functional, organism-based

SMILES	MIC [1] [µM]	CC50 at 48 h [2] [µM]	Ratio [3]	Activity [4]
CCc1nc2ccncc2n1CCCCOc1ccccc1	> 20			
CCc1nc2ccccc2n1CCCCOc1ccc(Cl)cc1	1.5 (≈ 0.493 µg/mL)	14	9.3	
CCc1nc2ccccc2n1CCCCOc1ccc(C#N)cc1	16 (≈ 5.11 µg/mL)	27	1.7	
CCc1nc2ccccc2n1CCCCOc1cccnc1	> 20	> 50		
CCc1nc2ccc(C)cc2n1CCCOc1ccc(C)cc1	0.27 (≈ 0.0833 µg/mL)	15	56	
CCc1nc2ccc(Cl)cc2n1CCCCOc1ccccc1	7.1 (≈ 2.33 µg/mL)	25	3.5	
CCc1nc2cc(C#N)ccc2n1CCCCOc1ccccc1	> 20	> 20	>20	
CCc1nc2ccc(C)cc2n1CCCCNc1ccc(C)cc1C	0.31 (≈ 0.104 µg/mL)	20	65	
CCc1nc2ccccc2n1CCCCOc1cccc(C)c1	0.42 (≈ 0.13 µg/mL)	19	45	
CCc1nc2ccccc2n1CCCCOc1ccc(N2CCOCC2)cc1	> 20	32		
CC(=O)Nc1nc2ccc(C)cc2n1CCCCOc1ccc(C)c(Cl)c1	11 (≈ 4.24 µg/mL)	8.3	0.8	
CCc1nc2ccccc2n1CCOc1ccccc1	> 20			
c1ccc(OCCCCn2c(N3CCOCC3)nc3ccccc32)cc1	20 (≈ 7.03 µg/mL)	20	20	
CCc1nc2ccccc2n1CCCCOc1ccncc1	> 20	> 50		
CCc1nc2ccccc2n1CCCCOc1ccccc1C	0.32 (≈ 0.0987 µg/mL)	16	50	
CCc1nc2ccc(C)cc2n1CCCNc1ccc(Br)c(C)c1	0.052 (≈ 0.0201 µg/mL)	27	523	inactive
Cc1nc2ccccc2n1CCCCOc1ccccc1	> 20	> 50		
CCc1nc2ccccc2n1CCCCOc1c(Cl)cccc1Cl	20 (≈ 7.27 µg/mL)	13	1.5	
CCc1nc2cnc(C)cc2n1CCCCOc1ccccc1	1.5 (≈ 0.464 µg/mL)	71	47	
CCc1cc2ccccc2n1CCCCSc1nnc(-c2ccc(Cl)cc2)o1	> 20	> 50		
CCc1nc2ccc(C)cc2n1CCCCNc1ccccc1	0.32 (≈ 0.0984 µg/mL)	21	66	
Clc1nc2ccccc2n1CCCCOc1ccccc1	> 20			

SMILES	MIC [1] [µM]	CC50 at 48 h [2] [µM]	Ratio [3]	Activity [4]
CCc1nc2ccc(C)cc2n1CCCCNc1ccc(C)cc1	0.15 (≈ 0.0482 µg/mL)	20	133	
CCc1nc2ccc(C)cc2n1CCCSc1ccc(C)cc1	3.3 (≈ 1.07 µg/mL)	12	3.6	
Cc1nc2ccccc2n1CCOc1ccc(Cl)cc1	> 20			
Cc1nc2ccccc2n1CCOc1ccccc1	> 20			
CCc1nc2ccccc2n1CCCCOc1cccc(Cl)c1	0.88 (≈ 0.289 µg/mL)	22	25	
CCc1nc2cc(Cl)cnc2n1CCCCOc1ccccc1	6.1 (≈ 2.01 µg/mL)	38	6.2	
CCc1nc2ccccc2n1CCCCOc1cc(C)c(CN2CCOCC2)cc1C	1.3 (≈ 0.548 µg/mL)	48	15	
CCc1nc2ccccc2n1CCCCOC	> 20	> 50		
CCc1nc2ccccc2n1CCCCOc1ccc2sc(C)nc2c1	1.5 (≈ 0.548 µg/mL)	21	14	
Cc1ccc2nc(C(C)O)n(CCCCOc3ccccc3)c2c1 (stereo not drawn)	20 (≈ 6.49 µg/mL)			
CCc1nc2ccccc2n1CCCCOc1ccc(C)c(Cl)c1	0.23 (≈ 0.0789 µg/mL)	14	61	
CCc1nc2cnccc2n1CCCCOc1ccccc1	> 20			
CCc1nc2cc(OC)ccc2n1CCCCOc1ccccc1	> 20			
CCc1nc2ccccc2n1CCCCOCc1ccccc1	3.6 (≈ 1.11 µg/mL)	32	8.9	
CCc1nc2ccccc2n1CCCCOc1ccnc2ccccc12	> 20	> 50		
CCc1nc2ccccc2n1CCCCOc1cc(C)c(Cl)c([N+](=O)[O-])c1	7.9 (≈ 3.06 µg/mL)	18	19	
CCc1nc2ccccc2n1CCCCOc1ccc(C)c(C)c1	0.3 (≈ 0.0967 µg/mL)	14	53	
CCc1nc2ccccc2n1CCCCOc1ccc(Cl)c(F)c1	1.6 (≈ 0.555 µg/mL)	16	10	
CCc1nc2ccc(C#N)cc2n1CCCCOc1ccccc1	> 20	> 20	>20	
CCc1cc2ccccc2n1CCCCNc1ccc(C)c(Br)c1	> 20			
CN1CCN(c2nc3ccccc3n2CCCCOc2ccccc2)CC1	> 20			
CCc1nc2ccccc2n1CCCCOc1ccccc1C(C)C	20 (≈ 6.73 µg/mL)	19	0.7	

SMILES	MIC [1] [µM]	CC50 at 48 h [2] [µM]	Ratio [3]	Activity [4]
CCc1nc2ccccc2n1CCCCOc1ccc(OC)cc1	1.2 (≈ 0.389 µg/mL)	21	27	
CCc1cc2ccccc2n1CCCCOc1ccc(C)c(Cl)c1	> 20			
CCc1nc2ccccc2n1CCCCOc1ccc(C)cc1	0.15 (≈ 0.0463 µg/mL)	14	93	
CCc1nc2ccc(OC)cc2n1CCCCOc1ccccc1	0.9 (≈ 0.292 µg/mL)	27	30	
CCc1nc2ccccc2n1CCOc1ccc(Cl)cc1	> 20			
Nc1nc2ccccc2n1CCCCOc1ccccc1	> 20			
c1ccc(OCCCCn2cnc3ccccc32)cc1	> 20			
Cc1nc2ccccc2n1CCCOc1ccccc1	> 20	> 50		
CCc1nc2ccc(C)cc2n1CCCCNc1ccc(C)c(Br)c1	0.11 (≈ 0.044 µg/mL)	12	109	
c1ccc(OCCCCn2ncc3ccccc32)cc1	> 20	> 50		
CCc1nc2ccccc2n1CCCCOc1ccc(Cl)cc1F	1.5 (≈ 0.52 µg/mL)	5.7	3.8	
c1ccc(OCCCCn2c(-c3ccccc3)nc3ccccc32)cc1	16 (≈ 5.48 µg/mL)	19	1.2	
FC(F)(F)c1nc2ccccc2n1CCCCOc1ccccc1	> 20			
CCc1nc2ccc(C)cc2n1CCCOc1ccc(C)c(Cl)c1	0.22 (≈ 0.0754 µg/mL)	17	77	inactive
CCc1nc2ccccc2n1CCCCOc1ccc(Cl)cc1C	1.5 (≈ 0.514 µg/mL)	20	2.3	
CCc1nc2ccc(C)cc2n1CCCOc1ccc(C)c(C)c1	0.22 (≈ 0.0709 µg/mL)	7.3	33	
CCc1nc2ccccc2n1CC1COc2ccccc2O1 (stereo not drawn)	> 20			
Cc1ccc2nc(C(C)O)n(CCCCOc3ccc(C)c(Cl)c3)c2c1 (stereo not drawn)	11 (≈ 4.1 µg/mL)	8.6	0.8	
CCc1nc2ccccc2n1CCCCOc1ccccc1Cl	0.68 (≈ 0.224 µg/mL)	16	23	
CCc1nc2ccccc2n1CCCCOc1ccc(Cl)cc1Cl	1.8 (≈ 0.654 µg/mL)	23	13	
